Measured values taken from PMC12838199, “A highly conserved ABC transporter mediates cello-oligosaccharide uptake in the extremely thermophilic, lignocellulolytic bacterium Anaerocellum bescii (f. Caldicellulosiruptor bescii)” (Applied and Environmental Microbiology, 2025).

Key:
Type in all cases: binding
Athe_0598 [1] = target: T1, Athe_0598 (Caldicellulosiruptor bescii, UniProt A0ABY1SBM3); assay: differential scanning calorimetry; conditions: 5 mM sugar, 2 mg/mL protein, 50 mM HEPES, 300 mM NaCl, pH 7.0; 4 °C/min
T1 construct: gene SAMN05216240_2512; IMAC purified after 68 °C heat treatment
Text: differential scanning calorimetry on Athe_0598

Athe_0598 [2] = target: T1, Athe_0598; assay: isothermal titration calorimetry; conditions: 25 °C; 50 mM HEPES, 300 mM NaCl, pH 7.0 (storage and characterization buffer); single-site model
Text: isothermal titration calorimetry on Athe_0598

Athe_0597 [3] = target: T2, Athe_0597 (Caldicellulosiruptor bescii, UniProt A0ABY1SBW7); assay: isothermal titration calorimetry; conditions: 25 °C; 50 mM HEPES, 300 mM NaCl, pH 7.0 (storage and characterization buffer); single-site model
T2 construct: gene SAMN05216240_2513; IMAC purified after 68 °C heat treatment
Text: isothermal titration calorimetry on Athe_0597

Athe_0597 [4] = target: T2, Athe_0597; assay: differential scanning calorimetry; conditions: 5 mM sugar, 2 mg/mL protein, 50 mM HEPES, 300 mM NaCl, pH 7.0; 4 °C/min
Text: differential scanning calorimetry on Athe_0597

T2 sequence (A0ABY1SBW7 entry or part of it): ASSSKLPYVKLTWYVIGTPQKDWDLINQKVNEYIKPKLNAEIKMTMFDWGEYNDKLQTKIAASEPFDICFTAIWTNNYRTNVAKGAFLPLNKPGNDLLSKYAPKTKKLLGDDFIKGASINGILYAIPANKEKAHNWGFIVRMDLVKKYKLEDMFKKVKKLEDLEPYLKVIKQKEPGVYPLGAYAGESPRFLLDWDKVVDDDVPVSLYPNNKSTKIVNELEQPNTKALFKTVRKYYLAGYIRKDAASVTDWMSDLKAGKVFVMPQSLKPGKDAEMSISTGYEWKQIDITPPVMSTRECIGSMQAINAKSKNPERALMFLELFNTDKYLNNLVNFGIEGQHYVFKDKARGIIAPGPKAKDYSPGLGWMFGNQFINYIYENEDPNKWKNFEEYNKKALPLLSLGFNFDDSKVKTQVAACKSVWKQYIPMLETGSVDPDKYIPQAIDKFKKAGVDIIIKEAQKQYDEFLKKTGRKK
T1 sequence (A0ABY1SBM3 entry or part of it): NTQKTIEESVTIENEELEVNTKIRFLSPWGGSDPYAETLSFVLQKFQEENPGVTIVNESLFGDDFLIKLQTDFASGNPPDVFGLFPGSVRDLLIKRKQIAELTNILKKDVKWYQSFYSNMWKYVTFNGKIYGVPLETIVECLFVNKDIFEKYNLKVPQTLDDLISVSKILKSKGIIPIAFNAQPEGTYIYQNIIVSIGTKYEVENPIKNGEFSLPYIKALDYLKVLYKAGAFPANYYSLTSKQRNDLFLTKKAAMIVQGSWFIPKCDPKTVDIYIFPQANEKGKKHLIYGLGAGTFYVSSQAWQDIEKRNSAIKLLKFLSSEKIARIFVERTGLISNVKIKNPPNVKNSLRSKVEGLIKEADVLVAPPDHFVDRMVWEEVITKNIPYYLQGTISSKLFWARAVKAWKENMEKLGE

Row | Structure (SMILES) | ΔTm (°C) (Athe_0598 [1]) | Kd (Athe_0598 [2]) | Kd (Athe_0597 [3]) | ΔTm (°C) (Athe_0597 [4])
1 | OC[C@H]1O[C@@H](O[C@H]2[C@H](O)[C@@H](O)C(O)O[C@@H]2CO)[C@H](O)[C@@H](O)[C@@H]1O (stereo partly shown) [G2, cellobiose] | 8.53 °C | 2840 ± 360 nM | 228 ± 100 nM | 7.57 °C
2 | OC[C@H]1O[C@@H](O[C@H]2[C@H](O)[C@@H](O)[C@H](O[C@H]3[C@H](O)[C@@H](O)C(O)O[C@@H]3CO)O[C@@H]2CO)[C@H](O)[C@@H](O)[C@@H]1O (stereo partly shown) [G3, cellotriose] | – | – | 942 ± 120 nM | 6.89 °C
3 | OC[C@H]1O[C@@H](O[C@H]2[C@H](O)[C@@H](O)[C@H](O[C@H]3[C@H](O)[C@@H](O)[C@H](O[C@H]4[C@H](O)[C@@H](O)C(O)O[C@@H]4CO)O[C@@H]3CO)O[C@@H]2CO)[C@H](O)[C@@H](O)[C@@H]1O (stereo partly shown) [G4, cellotetraose] | – | – | 1970 ± 520 nM | 9.30 °C
4 | OC[C@H]1O[C@@H](O[C@H]2[C@H](O)[C@@H](O)[C@H](O[C@H]3[C@H](O)[C@@H](O)[C@H](O[C@H]4[C@H](O)[C@@H](O)[C@H](O[C@H]5[C@H](O)[C@@H](O)C(O)O[C@@H]5CO)O[C@@H]4CO)O[C@@H]3CO)O[C@@H]2CO)[C@H](O)[C@@H](O)[C@@H]1O (stereo partly shown) [G5, cellopentaose] | – | – | 1180 ± 120 nM | 8.72 °C
